Key:
[1] = Plasma THC after rectal suppository (PEG 1000) in rat; conditions: polyethylene glycol 1000 base, dose equivalent to 1 mg THC
[2] = Stability of THC-Val-HS HME transmucosal patch; conditions: for Assay (as a % of theoretical amount): HME transmucosal patch
[3] = Control (IPBS) stability for the buccal homogenate study; type: physicochemical
Method: (§1) b. Porcine Buccal Tissue Homogenate Stability
(§2) Protein Concentration 2 mg/ml

[4] = Maximum amount dissolved in topical formulations; type: physicochemical
[5] = Chemical stability pH dependent at 25° C.; type: physicochemical
Method: B. Chemical Stability pH Dependent at 25° C.

[6] = Plasma THC from HME buccal patches in swine model; type: in vivo
Method: THC was used as control formulation. Plasma was sampled from each animal at predetermined times and the amount of THC in the plasma was determined.
FIG. 20: Plasma THC concentrations as a function of time from THC-Val-HS loaded HME buccal patches. Data represents the mean value from 4 pigs. The animals were maintained under anesthesia for the first 4 hours and were then allowed to come out of anesthesia and given access to food and water.
A dose dependent plasma concentration time profile was then evaluated.
Plasma THC concentrations as a function of time and dose from THC-Val-HS loaded HME patches. Data represents the mean value. The animals for maintained under anesthesia for the first 4 hours and were then allowed to come out of anesthesia and given access to food and water.

[7] = Bioreversion: plasma stability, porcine plasma; type: in vitro ADME
[8] = Thermal stability, 120° C. for 10 min; type: physicochemical; conditions: for CBN content of the sample after heating / Drug remaining / THC content of the sample after heating / Drug remaining (%): 120° C. for 10 min; for Drug remaining (%): % of initial; for CBN content of the sample, initial / Initial, μg (drug itself) / THC content of the sample, initial: before heating
Method: C. Thermal Stability—120° C. for 10 min.

[9] = Porcine buccal tissue homogenate stability; type: in vitro ADME; conditions: protein concentration 2 mg/ml
Method: as §1, §2

[10] = In vivo ocular bioavailability of THC after topical formulations
[11] = test system: intraocular pressure (IOP) induced model of glaucoma; test: Rabbit glaucoma model, IOP lowering after topical instillation; conditions: for Peak IOP drop, IOP as % of the baseline IOP: 50 μL topical
[12] = Aqueous solubility, pH dependent; type: physicochemical
[13] = Bioreversion: plasma stability, rabbit plasma; type: in vitro ADME
[14] = THC-Val-HS 0.25% w/v in 0.1% Cremophor RH 40 + 0.02% BAK + 0.1% EDTA + 0.5% HPMC, 1 Hour
[15] = THC-Val-HS 0.26% w/v in 2.5% HPβCD + 0.5% HPMC, 1 Hour
[16] = THC-Val-HS 0.26% w/v in 2.5% HPβCD + 0.5% HPMC, 3 Hours
[17] = THC-Val-HS 10% w/w Ocular Film, 1 Hour
[18] = THC-Val-HS 10% w/w Ocular Film, 3 Hours

For CCCCCc1cc(OC(=O)C(NC(=O)CCC(=O)O)C(C)C)c2c(c1)OC(C)(C)C1CCC(C)=CC21 (stereo not shown) [THC-Valinate-HS (15), THC-valinate-hemisuccinate], the “Blood levels after rectal administration” value [1] was “significant blood levels”, the “Assay (as a % of theoretical amount)” value ([2]; 1 Month, 25° C./60% RH) was 110.6 ± 0.1% and the “Assay (as a % of theoretical amount)” value ([2]; 1 Month, 40° C./75% RH) was 80.9 ± 3.9%. For the same compound, the “Assay (as a % of theoretical amount)” value ([2]; 3 Month, 25° C./60% RH) was 108.3 ± 4.6%, the “Assay (as a % of theoretical amount)” value ([2]; Initial) was 108.4 ± 0.2% and the “Stability in the hot-melt-extruded formulation” value ([2]; three month stability data) was “stable”. The K [3] was 0.40 ± 0.02 ×10^−3 min^−1, the “maximum amount that could be dissolved” value ([4]; Tocrisolve emulsion) was 0.97 % w/v and the “maximum amount that could be dissolved” value ([4]; micellar solution: HPβCD 15% + Cremophor RH 40 0.25% + BAK 0.01% + EDTA 0.1% + HPMC 0.5% w/v) was 0.89 % w/v. The “First order rate constant” value ([5]; Buffer pH 5.0, 25° C.) was “Stable”, the “First order rate constant” value ([5]; Buffer pH 7.0, 25° C.) was “Stable” and the “First order rate constant” value ([5]; Buffer pH 9.0, 25° C.) was “Stable”. For the same compound, the “First order rate constant” value ([5]; Water, 25° C.) was “Stable”, the “Dose dependence of THC blood levels from HME patches” value ([6]; swine, 5, 10, 20 mg formulations) was “dose dependant” and the “11-OH-THC or carboxy metabolite THC-COOH in plasma” value ([6]; swine, buccal patch) was “not seen”. For the same compound, the “THC levels in plasma from transmucosal HME patches” value ([6]; swine, buccal patch, listed as THC-Val-HS) was “Significant plasma THC levels were observed”, the K [7] was 85.54 ± 3.74 ×10^−2 min^−1 and the T1/2 [7] was 8.11 ± 0.35 min. For the same compound, the “Drug loading (%)” value [8] was 112.21 ± 4.99%, the “CBN content of the sample after heating” value [8] was 0 µg and the “Drug remaining” value [8] was 1350.13 ± 387.10 µg. The “THC content of the sample after heating” value [8] was 80.26 ± 8.59 µg, the “Drug remaining (%)” value [8] was “(96.29 ± 3.89) %” and the “CBN content of the sample, initial” value [8] was 0 µg. The “Initial, μg (drug itself)” value [8] was 1411.49 ± 459.10 µg, the “THC content of the sample, initial” value [8] was 96.52 ± 3.72 µg and the K [9] was 2.96 ± 0.19 ×10^−3 min^−1. The T1/2 [9] was 23.43 ± 1.49 min, the “THC concentrations in aqueous humor, iris-ciliary bodies / anterior segment ocular tissues” value ([10]; 1 hour post topical application) was “significant THC concentrations” and the “Total THC concentration, Aqueous Humor” value [10, 14] was 62.1 ± 12.6 ng/100 μL. For the same compound, the “Total THC concentration, Cornea” value [10, 14] was 1191.7 ± 231.1 ng/50 mg Tissue, the “Total THC concentration, Iris-Cilliary Body” value [10, 14] was 51.44 ± 19.5 ng/50 mg Tissue and the “Total THC concentration, Sclera” value [10, 14] was 913.4 ± 432.9 ng/250 mg Tissue. For the same compound, the “Total THC concentration, Aqueous Humor” value [10, 15] was 69.4 ± 16.7 ng/100 μL, the “Total THC concentration, Cornea” value [10, 15] was 1677.1 ± 172.1 ng/50 mg Tissue and the “Total THC concentration, Iris-Cilliary Body” value [10, 15] was 65.8 ± 15.9 ng/50 mg Tissue. For the same compound, the “Total THC concentration, Sclera” value [10, 15] was 882.2 ± 185.8 ng/250 mg Tissue, the “Total THC concentration, Aqueous Humor” value [10, 16] was 38.3 ± 10.2 ng/100 μL and the “Total THC concentration, Cornea” value [10, 16] was 1142.3 ± 415.9 ng/50 mg Tissue. For the same compound, the “Total THC concentration, Iris-Cilliary Body” value [10, 16] was 57.9 ± 16.1 ng/50 mg Tissue, the “Total THC concentration, Sclera” value [10, 16] was 241.8 ± 106.6 ng/250 mg Tissue and the “Total THC concentration, Aqueous Humor” value [10, 17] was 61.3 ± 32.1 ng/100 μL. For the same compound, the “Total THC concentration, Cornea” value [10, 17] was 1634.5 ± 756.5 ng/50 mg Tissue, the “Total THC concentration, Iris-Cilliary Body” value [10, 17] was 86.03 ± 38.2 ng/50 mg Tissue and the “Total THC concentration, Retina-Choroid” value [10, 17] was 17.02 ± 8.01 ng/50 mg Tissue. For the same compound, the “Total THC concentration, Sclera” value [10, 17] was 1891.2 ± 771.5 ng/250 mg Tissue, the “Total THC concentration, Aqueous Humor” value [10, 18] was 29.1 ± 14.2 ng/100 μL and the “Total THC concentration, Cornea” value [10, 18] was 1043.4 ± 614.4 ng/50 mg Tissue. The “Total THC concentration, Iris-Cilliary Body” value [10, 18] was 104.2 ± 41.2 ng/50 mg Tissue, the “Total THC concentration, Retina-Choroid” value [10, 18] was 11.9 ± 4.9 ng/50 mg Tissue and the “Total THC concentration, Sclera” value [10, 18] was 812.6 ± 501.4 ng/250 mg Tissue. For the same compound, the “Peak IOP drop, IOP as % of the baseline IOP” value ([11]; Tocrisolve emulsion, 0.97% w/v THC-Val-HS) was 53±3%, the “IOP-time profile compared with THC” value ([11]; at a lower dose) was “significantly better than that of THC” and the “Duration of action (time taken for IOP to return to 90% of baseline)” value ([11]; both formulations) was “about 4 hours”. The “time to peak IOP drop after instilling” value ([11]; micellar solution and Tocrisolve emulsion) was ≤ 90 min, the “Peak IOP drop, IOP as % of the baseline IOP” value ([11]; micellar solution, 0.89% w/v THC-Val-HS) was 62±3% and the “Aqueous Solubility” value ([12]; H20) was 8.50 ± 6.00 µg/mL. The “Aqueous Solubility” value ([12]; Water) was 16.54 ± 11.69 µM, the “Aqueous Solubility” value ([12]; pH 1.2) was 0.06 ± 0.03 µg/mL and the “Aqueous Solubility” value ([12]; pH 1.2, listed as THC-Valine-HS) was 0.12 ± 0.06 µM. The “Aqueous Solubility” value ([12]; pH 2) was 0.09 ± 0.03 µg/mL, the “Aqueous Solubility” value ([12]; pH 2, listed as THC-Valine-HS) was 0.17 ± 0.06 µM and the “Aqueous Solubility” value ([12]; pH 5) was 0.35 ± 0.02 µg/mL. The “Aqueous Solubility” value ([12]; pH 5, listed as THC-Valine-HS) was 0.67 ± 0.04 µM, the “Aqueous Solubility” value ([12]; pH 6) was 12.74 ± 1.80 µg/mL and the “Aqueous Solubility” value ([12]; pH 6, listed as THC-Valine-HS) was 24.80 ± 3.51 µM. For the same compound, the “Aqueous Solubility” value ([12]; pH 7) was 155.67 ± 31.19 µg/mL, the “Aqueous Solubility” value ([12]; pH 7, listed as THC-Valine-HS) was 303.06 ± 60.72 µM and the “Aqueous Solubility” value ([12]; pH 8) was 117.04 ± 10.91 µg/mL. For the same compound, the “Aqueous Solubility” value ([12]; pH 8, listed as THC-Valine-HS) was 227.86 ± 21.24 µM, the “Aqueous Solubility” value ([12]; pH 9) was 0.02 ± 0.00 µg/mL and the “Aqueous Solubility” value ([12]; pH 9, listed as THC-Valine-HS) was 0.05 ± 0.00 µM.
With CCCCCc1cc(OC(=O)C(N)CC(C)C)c2c(c1)OC(C)(C)C1CCC(C)=CC21 (stereo not shown) [THC-Leucinate (8), Δ^9-THC-leucinate] the K [13] was 33.84 ± 10.92 ×10^−2 min^−1, the T1/2 [13] was 2.160 ± 0.697 min and the K [3] was 5.49 ± 0.46 ×10^−3 min^−1. The “First order rate constant” value ([5]; Buffer pH 5.0, 25° C.) was 15.94 ± 3.38 ×10^−3 h^−1, the “First order rate constant” value ([5]; Buffer pH 7.0, 25° C.) was 85.91 ± 16.83 ×10^−3 h^−1 and the “First order rate constant” value ([5]; Buffer pH 9.0, 25° C.) was 119.98 ± 33.51 ×10^−3 h^−1. The “First order rate constant” value ([5]; Water, 25° C.) was 8.51 ± 2.80 ×10^−3 h^−1, the K [7] was 42.70 ± 3.58 ×10^−2 min^−1 and the T1/2 [7] was 1.629 ± 0.137 min. The “Drug loading (%)” value [8] was 103.65 ± 4.12%, the “CBN content of the sample after heating” value [8] was 20.27 ± 0.43 µg and the “Drug remaining” value [8] was 1383.29 ± 40.73 µg. The “THC content of the sample after heating” value [8] was 25.86 ± 0.83 µg, the “Drug remaining (%)” value [8] was “(88.99 ± 0.92) %” and the “CBN content of the sample, initial” value [8] was 16.34 ± 0.50 µg. The “Initial, μg (drug itself)” value [8] was 1554.80 ± 61.76 µg, the “THC content of the sample, initial” value [8] was -6.13 ± 0.84 µg and the K [9] was 22.98 ± 1.49 ×10^−3 min^−1. For the same compound, the T1/2 [9] was 30.21 ± 1.95 min, the “Aqueous Solubility” value ([12]; pH 1.2) was 9.36 ± 0.11 µg/mL and the “Aqueous Solubility” value ([12]; pH 1.2, listed as THC-Leucine) was 21.89 ± 0.26 µM. The “Aqueous Solubility” value ([12]; pH 2) was 23.71 ± 0.40 µg/mL, the “Aqueous Solubility” value ([12]; pH 2, listed as THC-Leucine) was 55.46 ± 0.93 µM and the “Aqueous Solubility” value ([12]; pH 3) was 5.17 ± 0.60 µg/mL. The “Aqueous Solubility” value ([12]; pH 3, listed as THC-Leucine) was 12.08 ± 1.40 µM, the “Aqueous Solubility” value ([12]; pH 4) was 1.95 ± 0.09 µg/mL and the “Aqueous Solubility” value ([12]; pH 4, listed as THC-Leucine) was 4.33 ± 0.20 µM. For the same compound, the “Aqueous Solubility” value ([12]; pH 5) was 0.23 ± 0.03 µg/mL, the “Aqueous Solubility” value ([12]; pH 5, listed as THC-Leucine) was 0.54 ± 0.06 µM and the “Aqueous Solubility” value ([12]; pH 6) was 0.08 ± 0.01 µg/mL. For the same compound, the “Aqueous Solubility” value ([12]; pH 6, listed as THC-Leucine) was 0.19 ± 0.02 µM.

From patent US9630941B2 (priority 2008, dated 2017)
